Literature values as cited in patent US20070087333A1, “Method to detect antigen-specific cytolytic activity” (Erasmus Universiteit Rotterdam, priority 2004, published 2007).

Tests used:
[1] = test system: TCC3180 CTL clone; conditions: NP418-426 epitope variants, 51Cr-release assay, reference [2]; for EC50: read-out: EC50 value of the peptide variant (functional avidity)
[2] = test system: TCC-C10 CTL clone; conditions: NP418-426 epitope variants, 51Cr-release assay, reference [2]; read-out: EC50 value of the peptide variant (functional avidity)

Row | Substance | EC50 [1] | EC50 [2] | EC50 value of the peptide variant (functional avidity) [1]
1 | NP01: HLA-B*3501 epitope NP418-426 peptide variant of influenza NP strain A/NL/18/94 (LPFEKSTVM; Derived from influenza virus genes encoding NP strain A/NL/18/94 (NP01)) | 0.5 nM | ~0.8 nM | 
2 | NP02: HLA-B*3501 epitope NP418-426 peptide variant of influenza NP strain A/HK/2/68 (LPFDKPTIM; Derived from influenza virus genes encoding NP strain A/HK/2/68 (NP02)) | 26 nM | > 5000 nM | 
3 | NP03: HLA-B*3501 epitope NP418-426 peptide variant of influenza NP strain A/PR/8/34 (LPFDRTTIM; Derived from influenza virus genes encoding NP strain A/PR/8/34 (NP03)) |  | > 10000 nM | l lOO
